# Earlier results, collected in patent US8771310B2, “Anti-no-reflow guide wire for vascular interventional procedures” (Adenopaint, LLC, priority 2007, dated 2014).
# B1: abciximab: IIb/IIIa platelet inhibitor (antibody, chains of the INN, looked up, V domains shown)
# VH: EVQLQQSGTVLARPGASVKMSCEASGYTFTNYWMHWVKQRPGQGLEWIGAIYPGNSDTSYIQKFKGKAKLTAVTSTTSVYMELSSLTNEDSAVYYCTLYDGYYVFAYWGQGTLVTVSA
# VL: EIVLTQSPVTLSVTPGDSVSLSCRASRDISNNLHWFQQTSHESPRLLIKYASQSMSGIPSRFSGSGSGTDFTLSINSVETEDFGMYFCQQTNSWPYTFGGGTKLEIK
# modifications: Fab
# Experiments:
# [1] = test system: patients with stable and unstable angina; details: intracoronary infusion or bolus via guide catheter prior to procedure; 24 hours after PCI
# patients with STEMI = details: large intravenous doses
# patients undergoing PCI = details: preloading 600 mg
# [2] = test system: patients undergoing PCI of SVGs; details: PCI of degenerated SVGs
molecule,measurement,setting,value
Nc1ncnc2c1ncn2[C@@H]1O[C@H](CO)[C@@H](O)[C@H]1O [adenosine],rise in CK-MB and Troponin after PCI,[1],significantly attenuated the rise
same,cardioprotection with reperfusion therapies,patients with STEMI,cardioprotective affects
COC(=O)[C@H](c1ccccc1Cl)N1CCc2sccc2C1 [clopidogrel],cell necrosis after PCI,patients undergoing PCI,reduced cell necrosis
B1,MACE at thirty days,[2],failed to reduce MACE at thirty days
